Test results from patent publication US20250002455A1, “NEW N-PHENYLPYRROLAMIDE INHIBITORS OF DNA GYRASE AND TOPOISOMERASE IV WITH ANTIBACTERIAL ACTIVITY” (priority 2020, published 2025).
Values after ≈ are worked out from the molar mass of the structure shown. Where two headings read alike, the source gives them in different places.

Experiments:
[1] = biological target: T1, S. aureus topoisomerase IV (Staphylococcus aureus, UniProt P0C1S7); assay: Topoisomerase IV inhibition assay (Inspiralis, streptavidin-coated plates); assay type: biochemical; conditions: S. aureus topo IV; for remaining activity at 10 µM: 10 μM compound; for IC50: read-out: IC50
T1 construct: purchased Inspiralis
T1 sequence (P0C1U9 whole entry): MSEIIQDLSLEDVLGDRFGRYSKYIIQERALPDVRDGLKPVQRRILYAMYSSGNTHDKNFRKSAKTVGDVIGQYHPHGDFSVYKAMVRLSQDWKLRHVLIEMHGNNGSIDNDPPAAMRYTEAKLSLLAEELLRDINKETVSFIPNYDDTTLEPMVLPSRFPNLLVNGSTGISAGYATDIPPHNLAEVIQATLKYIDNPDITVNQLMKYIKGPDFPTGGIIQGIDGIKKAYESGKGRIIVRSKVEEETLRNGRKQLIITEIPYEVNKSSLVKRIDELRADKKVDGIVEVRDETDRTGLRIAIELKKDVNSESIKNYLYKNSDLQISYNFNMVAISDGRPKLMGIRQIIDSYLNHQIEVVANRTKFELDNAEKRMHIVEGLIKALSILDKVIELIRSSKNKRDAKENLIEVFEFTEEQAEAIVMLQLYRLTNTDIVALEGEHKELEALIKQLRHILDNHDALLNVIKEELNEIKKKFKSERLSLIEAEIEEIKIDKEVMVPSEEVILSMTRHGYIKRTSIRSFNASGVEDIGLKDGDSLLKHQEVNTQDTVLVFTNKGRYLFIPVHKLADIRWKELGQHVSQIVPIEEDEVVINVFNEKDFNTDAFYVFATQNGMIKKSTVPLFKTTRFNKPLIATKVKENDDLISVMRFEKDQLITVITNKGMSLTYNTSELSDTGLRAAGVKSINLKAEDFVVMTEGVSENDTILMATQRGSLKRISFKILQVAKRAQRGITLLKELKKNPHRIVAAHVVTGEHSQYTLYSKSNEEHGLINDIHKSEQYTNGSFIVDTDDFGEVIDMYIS
T1 sequence (P0C1S7 whole entry): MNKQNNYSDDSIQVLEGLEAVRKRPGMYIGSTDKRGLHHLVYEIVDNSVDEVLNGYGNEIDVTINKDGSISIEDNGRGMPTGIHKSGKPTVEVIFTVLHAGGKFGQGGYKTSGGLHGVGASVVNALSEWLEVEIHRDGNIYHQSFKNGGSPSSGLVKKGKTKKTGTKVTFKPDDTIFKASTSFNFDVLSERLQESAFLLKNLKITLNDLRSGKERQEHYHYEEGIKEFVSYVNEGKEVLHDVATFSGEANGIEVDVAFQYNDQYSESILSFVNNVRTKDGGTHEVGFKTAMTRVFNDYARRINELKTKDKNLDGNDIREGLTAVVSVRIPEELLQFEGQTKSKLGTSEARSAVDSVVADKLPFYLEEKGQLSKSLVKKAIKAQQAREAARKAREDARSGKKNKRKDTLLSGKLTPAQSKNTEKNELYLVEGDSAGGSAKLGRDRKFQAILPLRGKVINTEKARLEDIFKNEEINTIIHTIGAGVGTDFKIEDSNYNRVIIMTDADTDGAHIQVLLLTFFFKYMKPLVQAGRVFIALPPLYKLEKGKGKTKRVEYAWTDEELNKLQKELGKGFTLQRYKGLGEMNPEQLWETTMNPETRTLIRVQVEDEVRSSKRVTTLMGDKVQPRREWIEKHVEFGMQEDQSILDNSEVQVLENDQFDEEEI
Protocol: Inhibitory activities for compounds of the present invention were determined on E. coli and S. aureus DNA gyrase and topoisomerase IV in an assay from Inspiralis on streptavidin-coated 96-well microtiter plates from Thermo scientific Pierce. […] After washing off the unbound oligonucleotide, the enzyme test was performed. […] Reaction solutions were incubated at 37° C. for 30 min. After that, the TF buffer (50 mM NaOAc with pH 5.0, 50 mM NaCl and 50 mM MgCl2) was added to terminate the enzymatic reaction. After additional incubation for 30 min at rt, during which biotin-oligonucleotide-plasmid triplex was formed, the unbound plasmid was washed off using TF buffer and SybrGOLD in T10 buffer (10 mM Tris HCl with pH 8.0 and 1 mM EDTA) was added. […] Initial screening was done at 100 or 10 nM concentration of inhibitors against E. coli DNA gyrase or 1 μM or 100 nM concentration against S. aureus DNA gyrase and E. coli and S. aureus topo IV. […] GraphPad Prism 6.0 software was used to calculate the IC50 values. The result is given as the average value of three independent measurements. […] Chemoth.

E. coli DNA gyrase = biological target: T2, E. coli DNA gyrase (Escherichia coli, UniProt P0AES6); assay: biochemical; conditions: for IC50: read-out: IC50
T2 construct: purchased Inspiralis
In short: (§1)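 Triplex-capture format: plasmid bound to a biotinylated oligonucleotide on streptavidin plates after reaction at 37 °C for 30 min. The reaction was stopped with TF buffer (50 mM NaOAc pH 5.0, 50 mM NaCl, 50 mM MgCl2), and captured DNA was stained with SybrGOLD. IC50 values are the mean of three independent measurements.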

[2] = tested on: E. aerogenes (ATCC 13408); assay: Microbroth dilution MIC (CLSI); assay type: cell-based, Enterobacter aerogenes; conditions: Klebsiella aerogenes, ATCC13408
Protocol: The chemical entities described in the present invention were assessed for their antimicrobial activity using a microbroth dilution assay as recommended by the CLSI (Methods for Dilution Antimicrobial Susceptibility Tests for Bacteria That Grow Aerobically, and Methods for Antimicrobial Susceptibility Testing of Anaerobic Bacteria, Clinical and Laboratory Standards Institute, Document M07-A8, and M11-A8, Wayne, PA 19087, USA, 2012.). Compounds were dissolved by using 100% DMSO. Serial two-fold dilutions of each compound were made by using 100% DMSO as the diluent.
A library of Gram-negative and Gram-positive microbes and their drug- and multidrug-resistant variants were employed as test organisms. The MIC (minimum inhibitory concentration) was determined as the lowest concentration of an individual drug that lead to no visible growth.

E. faecium ATCC 700221 = assay: Microbroth dilution MIC (CLSI); assay type: cell-based; conditions: Enterococcus faecium, ATCC700221; E. faecium ATCC 700221; read-out: MIC
In short: (§2)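 Visible growth endpoint defines the MIC in this CLSI-guided microdilution test, run on drug-susceptible and resistant Gram-negative and Gram-positive strains.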

[3] = tested on: K. pneumoniae (ATCC 700603); assay: Microbroth dilution MIC (CLSI); assay type: cell-based; conditions: Klebsiella pneumoniae, ATCC700603
In short: as §2

[4] = tested on: S. aureus ATCC 43300 (MRSA); assay: Microbroth dilution MIC (CLSI); assay type: cell-based; conditions: Staphylococcus aureus; S. aureus ATCC 43300 (MRSA); read-out: MIC
In short: as §2

[5] = tested on: A. baumannii (ATCC 19606); assay: Microbroth dilution MIC (CLSI); assay type: cell-based; conditions: Acinetobacter baumannii, ATCC19606
In short: as §2

P. aeruginosa ATCC 27853 = assay: Microbroth dilution MIC (CLSI); assay type: cell-based; conditions: Pseudomonas aeruginosa, ATCC27853
In short: as §2

A. baumannii ATCC 17978 = assay: Microbroth dilution MIC (CLSI); assay type: cell-based; conditions: Acinetobacter baumannii, ATCC17978; A. baumannii ATCC 17978; read-out: MIC
In short: as §2

E. coli ATCC 25922 = assay: Microbroth dilution MIC (CLSI); assay type: cell-based; conditions: Escherichia coli, ATCC25922
In short: as §2

[6] = tested on: E. spp. cloacae ATCC 13047; assay: Microbroth dilution MIC (CLSI); assay type: cell-based; conditions: Enterobacter cloacae, ATCC13047; E. spp. cloacae ATCC 13047; read-out: MIC
In short: as §2

K. pneumoniae ATCC 10031 = assay: Microbroth dilution MIC (CLSI); assay type: cell-based; conditions: Klebsiella pneumoniae, ATCC10031; K. pneumoniae ATCC 10031; read-out: MIC
In short: as §2

S. aureus ATCC 29213 = assay: Microbroth dilution MIC (CLSI); assay type: cell-based; conditions: Staphylococcus aureus, ATCC29213
In short: as §2

E. faecium (ATCC 35667) = assay: Microbroth dilution MIC (CLSI); assay type: cell-based; conditions: Enterococcus faecium, ATCC35667
In short: as §2

E. coli topoisomerase IV = biological target: T3, E. coli topoisomerase IV (Escherichia coli, UniProt P20083); assay: biochemical; conditions: for remaining activity at 10 µM: 10 μM compound, read-out: RA (residual activity of the enzyme); for IC50: read-out: IC50
T3 construct: purchased Inspiralis
T3 sequence (P0AFI2 whole entry): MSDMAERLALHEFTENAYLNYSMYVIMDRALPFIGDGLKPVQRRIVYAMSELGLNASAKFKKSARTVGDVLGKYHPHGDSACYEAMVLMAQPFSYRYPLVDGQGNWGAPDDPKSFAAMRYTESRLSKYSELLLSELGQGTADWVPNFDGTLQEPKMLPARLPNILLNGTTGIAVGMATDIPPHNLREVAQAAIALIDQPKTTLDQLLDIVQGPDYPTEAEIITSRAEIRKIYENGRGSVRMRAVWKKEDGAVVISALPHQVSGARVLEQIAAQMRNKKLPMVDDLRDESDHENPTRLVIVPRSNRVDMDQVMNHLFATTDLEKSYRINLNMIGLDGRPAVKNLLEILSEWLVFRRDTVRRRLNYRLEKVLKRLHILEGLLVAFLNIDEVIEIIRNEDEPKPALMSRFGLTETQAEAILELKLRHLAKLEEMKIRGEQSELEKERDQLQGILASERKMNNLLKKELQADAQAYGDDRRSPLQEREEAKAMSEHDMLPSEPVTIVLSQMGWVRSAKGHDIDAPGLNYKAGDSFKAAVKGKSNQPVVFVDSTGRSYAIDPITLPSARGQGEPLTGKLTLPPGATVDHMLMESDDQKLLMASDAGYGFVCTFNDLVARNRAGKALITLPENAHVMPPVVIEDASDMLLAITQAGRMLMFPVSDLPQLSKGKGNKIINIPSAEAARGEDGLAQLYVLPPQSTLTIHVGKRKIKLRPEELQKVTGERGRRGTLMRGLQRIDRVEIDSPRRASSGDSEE
T3 sequence (P20083 whole entry): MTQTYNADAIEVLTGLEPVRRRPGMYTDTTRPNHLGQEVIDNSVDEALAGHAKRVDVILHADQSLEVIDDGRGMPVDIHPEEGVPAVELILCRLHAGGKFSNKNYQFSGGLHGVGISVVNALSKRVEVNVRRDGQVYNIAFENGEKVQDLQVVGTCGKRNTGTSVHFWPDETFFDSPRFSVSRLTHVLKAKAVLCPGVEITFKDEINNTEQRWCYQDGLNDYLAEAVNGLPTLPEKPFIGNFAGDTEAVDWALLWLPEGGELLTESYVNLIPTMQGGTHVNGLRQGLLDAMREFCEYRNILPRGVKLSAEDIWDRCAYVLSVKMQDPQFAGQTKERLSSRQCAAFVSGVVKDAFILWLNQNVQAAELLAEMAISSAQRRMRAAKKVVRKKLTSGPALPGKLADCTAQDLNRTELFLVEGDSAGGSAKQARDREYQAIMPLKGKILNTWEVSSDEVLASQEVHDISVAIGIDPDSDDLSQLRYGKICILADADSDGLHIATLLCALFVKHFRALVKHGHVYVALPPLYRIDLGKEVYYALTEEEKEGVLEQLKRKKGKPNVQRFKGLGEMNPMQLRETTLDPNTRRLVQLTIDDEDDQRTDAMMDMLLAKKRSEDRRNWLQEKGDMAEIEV
In short: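 Supercoiling/relaxation read via biotin-oligonucleotide triplex capture on streptavidin plates; reactions 30 min at 37° C, stopped with TF buffer pH 5.0, plasmid stained with SybrGOLD.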

[7] = biological target: DNA gyrase from Mycobacterium tuberculosis (Mycobacterium tuberculosis, UniProt P9WG45); assay: Gel-based supercoiling assay; assay type: biochemical; conditions: M. tuberculosis DNA gyrase
From the text: Example compound 18 was additionally evaluated against DNA gyrase from Mycobacterium tuberculosis using a gel-based supercoiling assay.

S. aureus DNA gyrase = biological target: T4, S. aureus DNA gyrase (Staphylococcus aureus, UniProt P0A0K8); assay: biochemical; conditions: for remaining activity at 1 µM: 1 μM compound; for IC50: read-out: IC50
T4 construct: purchased Inspiralis
T4 sequence (P20831 whole entry): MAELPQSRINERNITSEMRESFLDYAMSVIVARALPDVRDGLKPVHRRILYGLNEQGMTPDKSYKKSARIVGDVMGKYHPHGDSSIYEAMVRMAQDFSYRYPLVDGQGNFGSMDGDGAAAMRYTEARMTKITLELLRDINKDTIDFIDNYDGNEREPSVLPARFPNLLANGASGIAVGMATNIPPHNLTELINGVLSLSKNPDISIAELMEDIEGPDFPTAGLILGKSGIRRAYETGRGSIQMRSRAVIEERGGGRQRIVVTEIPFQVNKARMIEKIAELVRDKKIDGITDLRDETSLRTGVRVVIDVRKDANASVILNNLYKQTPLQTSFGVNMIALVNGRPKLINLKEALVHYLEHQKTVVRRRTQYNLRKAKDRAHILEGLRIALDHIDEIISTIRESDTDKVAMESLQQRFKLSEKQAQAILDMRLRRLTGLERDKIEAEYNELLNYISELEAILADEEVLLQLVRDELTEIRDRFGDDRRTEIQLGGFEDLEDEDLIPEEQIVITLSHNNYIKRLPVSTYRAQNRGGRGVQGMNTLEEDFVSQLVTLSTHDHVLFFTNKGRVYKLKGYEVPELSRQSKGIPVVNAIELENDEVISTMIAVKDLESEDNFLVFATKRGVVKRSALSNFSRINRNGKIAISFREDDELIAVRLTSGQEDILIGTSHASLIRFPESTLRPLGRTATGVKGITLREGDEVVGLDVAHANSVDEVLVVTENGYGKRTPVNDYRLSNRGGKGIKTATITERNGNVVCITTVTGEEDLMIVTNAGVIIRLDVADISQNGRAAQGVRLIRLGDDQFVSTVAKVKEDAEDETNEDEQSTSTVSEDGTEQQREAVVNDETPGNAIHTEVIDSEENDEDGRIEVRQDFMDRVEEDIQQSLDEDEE
T4 sequence (P0A0K8 whole entry): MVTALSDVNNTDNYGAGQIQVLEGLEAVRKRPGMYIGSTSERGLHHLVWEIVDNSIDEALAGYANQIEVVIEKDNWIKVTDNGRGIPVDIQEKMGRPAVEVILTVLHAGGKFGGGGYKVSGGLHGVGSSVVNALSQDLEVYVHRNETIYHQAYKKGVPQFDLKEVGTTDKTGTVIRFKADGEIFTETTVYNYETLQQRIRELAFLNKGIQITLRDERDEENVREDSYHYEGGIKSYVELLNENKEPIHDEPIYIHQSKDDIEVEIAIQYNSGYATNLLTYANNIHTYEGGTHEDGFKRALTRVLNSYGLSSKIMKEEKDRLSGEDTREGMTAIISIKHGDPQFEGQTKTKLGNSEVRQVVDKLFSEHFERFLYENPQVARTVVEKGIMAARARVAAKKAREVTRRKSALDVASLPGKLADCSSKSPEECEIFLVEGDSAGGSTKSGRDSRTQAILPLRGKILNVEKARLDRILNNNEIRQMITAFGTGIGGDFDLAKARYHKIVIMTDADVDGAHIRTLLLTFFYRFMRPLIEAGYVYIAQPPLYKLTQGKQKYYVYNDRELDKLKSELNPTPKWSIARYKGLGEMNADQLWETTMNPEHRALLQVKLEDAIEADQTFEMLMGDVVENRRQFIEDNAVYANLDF
In short: as §1

E. faecalis ATCC 29212 = assay: Microbroth dilution MIC (CLSI); assay type: cell-based; conditions: Enterococcus faecalis, ATCC29212; E. faecalis ATCC 29212; read-out: MIC
In short: as §2

[8] = E. aerogenes (ATCC 13408), read-out: MIC
[9] = K. pneumoniae (ATCC 700603), read-out: MIC
[10] = A. baumannii (ATCC 19606), read-out: MIC
[11] = P. aeruginosa ATCC 27853, read-out: MIC
[12] = E. coli ATCC 25922, read-out: MIC
[13] = S. aureus ATCC 29213, read-out: MIC
[14] = E. faecium (ATCC 35667), read-out: MIC
[15] = read-out: RA (residual activity of the enzyme)
[16] = S. aureus DNA gyrase, read-out: RA (residual activity of the enzyme)

SMILES | IC50 (E. coli DNA gyrase; E. coli DNA gyrase) [nM] | MIC [2, 8] [µg/mL] | MIC [3, 9] [µg/mL] | MIC [5, 10] [µg/mL] | MIC (P. aeruginosa ATCC 27853; [11]) [µg/mL] | MIC (E. coli ATCC 25922; [12]) [µg/mL] | MIC (S. aureus ATCC 29213; [13]) [µg/mL] | MIC (E. faecium (ATCC 35667); [14]) [µg/mL] | remaining activity at 10 µM [1, 15] [%] | remaining activity at 10 µM (E. coli topoisomerase IV; E. coli topo IV) [%] | IC50 [1] [nM] | further results
Cc1[nH]c(C(=O)Nc2ccc(-c3nnn[nH]3)cc2N2CCOCC2)c(Cl)c1Cl [Example 10, 3,4-Dichloro-5-methyl-N-(2-morpholino-4-(2H-tetrazol-5-yl)phenyl)-1H-pyrrole-2-carboxamide] | 44.5 | ≥ 64 | ≥ 64 | ≥ 64 | ≥ 64 | ≥ 64 | ≥ 64 | 10 (≈ 23.7 µM) |  |  |  | remaining activity at 0.1 µM ([1]; 0.1 μM compound, read-out: RA (residual activity of the enzyme)): 101%; remaining activity at 1 µM ([1]; 1 μM compound, read-out: RA (residual activity of the enzyme)): 7%; MIC (E. faecium ATCC 700221): ≥ 64 µg/mL; MIC [4]: ≥ 64 µg/mL; MIC (A. baumannii ATCC 17978): ≥ 64 µg/mL; MIC [6]: ≥ 64 µg/mL; MIC (K. pneumoniae ATCC 10031): ≥ 64 µg/mL
Cc1[nH]c(C(=O)Nc2ccc(C(=O)O)cc2N2CCNCC2)c(Cl)c1Cl [Example 12, 4-(5-Carboxy-2-(3,4-dichloro-5-methyl-1H-pyrrole-2-carboxamido)phenyl)piperazin-1-ium chloride] |  |  |  |  | ≥ 64 | ≥ 64 | ≥ 64 |  | -17 | -18 |  | remaining activity at 1 µM (E. coli DNA gyrase; E. coli DNA gyrase, 1 μM compound, read-out: RA (residual activity of the enzyme)): 67%; MIC [2]: ≥ 64 µg/mL; MIC [3]: ≥ 64 µg/mL; MIC [5]: ≥ 64 µg/mL; MIC (E. faecium (ATCC 35667)): ≥ 64 µg/mL
Cc1[nH]c(C(=O)Nc2ccc(-c3n[nH]c(=O)o3)cc2N2CCC[C@H](N)C2)c(Cl)c1Cl.Cl [Example 18, (S)-1-(2-(3,4-Dichloro-5-methyl-1H-pyrrole-2-carboxamido)-5-(5-oxo-4,5-dihydro-1,3,4-oxadiazol-2-yl)phenyl)piperidin-3-aminium chloride] | 27.2 |  |  |  | 64 | 16 | 2 |  |  |  | 406 | IC50 [7]: 26.5 ± 2.1 nM; remaining activity at 0.1 µM (S. aureus DNA gyrase; S. aureus DNA gyrase, 0.1 μM compound, read-out: RA (residual activity of the enzyme)): 41%; remaining activity at 1 µM (S. aureus DNA gyrase; [16]): 11%; MIC [4]: 4 µg/mL; MIC (E. faecalis ATCC 29212): 2 µg/mL; MIC (A. baumannii ATCC 17978): 16 µg/mL; MIC [6]: > 64 µg/mL; MIC (K. pneumoniae ATCC 10031): 0.25 µg/mL
Cc1[nH]c(C(=O)Nc2ccc(C(=O)NCC(=O)O)cc2N2CC[C@@H](N)C2)c(Cl)c1Cl [Example 34, (R)-1-(5-((Carboxymethyl)carbamoyl)-2-(3,4-dichloro-5-methyl-1H-pyrrole-2-carboxamido)phenyl)pyrrolidin-3-aminium chloride] |  |  |  |  |  |  |  |  |  |  | 2030 | IC50 (E. coli topoisomerase IV): 2370 nM; IC50 (E. coli DNA gyrase): 21.3 nM; IC50 (S. aureus DNA gyrase): 1240 nM; MIC [2]: ≥ 64 µg/mL; MIC [3]: ≥ 64 µg/mL; MIC [5]: ≥ 64 µg/mL; MIC (P. aeruginosa ATCC 27853): ≥ 64 µg/mL; MIC (E. coli ATCC 25922): ≥ 64 µg/mL; MIC (S. aureus ATCC 29213): ≥ 64 µg/mL; MIC (E. faecium (ATCC 35667)): ≥ 64 µg/mL
Cc1[nH]c(C(=O)Nc2ccc(C(=O)NCC(=O)O)cc2N2CCNCC2)c(Cl)c1Cl.Cl [Example 36, 4-(5-((Carboxymethyl)carbamoyl)-2-(3,4-dichloro-5-methyl-1H-pyrrole-2-carboxamido)phenyl)piperazin-1-ium chloride] | 40.3 | ≥ 64 | ≥ 64 | ≥ 64 | ≥ 64 | ≥ 64 | ≥ 64 | ≥ 64 |  | -43 | 4190 | IC50 (S. aureus DNA gyrase; S. aureus DNA gyrase): 621 nM
Cl.N[C@H]1CCN(c2cc(C(=O)NCC(=O)O)ccc2NC(=O)c2cc(Br)c(Br)[nH]2)C1 [Example 38, (S)-1-(5-((Carboxymethyl)carbamoyl)-2-(4,5-dibromo-1H-pyrrole-2-carboxamido)phenyl)pyrrolidin-3-aminium chloride] | 35.7 | ≥ 64 | ≥ 64 | ≥ 64 | ≥ 64 | ≥ 64 | ≥ 64 | ≥ 64 | 91 | 84 |  | remaining activity at 10 µM (S. aureus DNA gyrase; S. aureus DNA gyrase, 10 μM compound, read-out: RA (residual activity of the enzyme)): 46%
Cl.O=C(O)CNC(=O)c1ccc(NC(=O)c2cc(Br)c(Br)[nH]2)c(N2CCNCC2)c1 [Example 39, 4-(5-((Carboxymethyl)carbamoyl)-2-(4,5-dibromo-1H-pyrrole-2-carboxamido)phenyl)piperazin-1-ium chloride] | 841 | ≥ 64 | ≥ 64 | ≥ 64 | ≥ 64 | ≥ 64 | ≥ 64 | ≥ 64 | 73 | 97 |  | 
Cc1[nH]c(C(=O)Nc2ccc(C(=O)NCc3n[nH]c(=O)o3)cc2N2CCNCC2)c(Cl)c1Cl.Cl [Example 40, 4-(2-(3,4-Dichloro-5-methyl-1H-pyrrole-2-carboxamido)-5-(((5-oxo-4,5-dihydro-1,3,4-oxadiazol-2-yl)methyl)carbamoyl)phenyl)piperazin-1-ium chloride] | 22.4 | ≥ 64 | ≥ 64 | ≥ 64 | ≥ 64 | ≥ 64 | ≥ 64 | ≥ 64 |  |  | 2700 | IC50 (E. coli topoisomerase IV; E. coli topo IV): 2970 nM; remaining activity at 1 µM (S. aureus DNA gyrase; [16]): 37%
